The values below come from patent US11633473B2 (priority 2017, dated 2023).

The structures appear in SMILES notation.

The test system of one series is neonatal BMDCs. Nature of the series: BMDC in vitro stimulation with PRR agonists/adjuvants, 20-24 h: cytokines by ELISA, maturation markers by flow cytometry. Format: cell-based, C57BL/6 mice. How it is done:
Briefly, mice were sacrificed and legs removed; bones were surgically cleaned from surrounding tissue, extremities of tibiae and femurs were trimmed with sterile scissors and bone marrow flushed through a 70 μm nylon mesh strainer (Corning Life Sciences). Cell number and viability was determined by trypan blue exclusion. […] Plates were incubated in humidified atmosphere at 37° C., 5% CO2 for 6 days, with one supplement of 10 ml of complete culture medium and rmGM-CSF on day 3. On Day 6, non-adherent and loosely adherent cells were harvested by washing the plate gently with culture medium. Adherent cells were discarded. For flow cytometry analysis, BMDCs were stained (20 minutes at 4° C.) in PBS+FBS 2%+EDTA 2 mM, fixed with formaldehyde 4% (10 minutes at RT) and acquired on a BD LSRFortessa flow cytometer (BD Biosciences) or a Sony spectral analyzer SP6800 (Sony Biotechnology) and data were analyzed using FlowJo v.10 software (Tree Star). For a complete list of antibodies and fluorochromes used in the study see Table 2.
Rough (Salmonella Minnesota, R595) and smooth (Escherichia coli, O55:B5) lipopolysaccharide (LPS) were purchased from List Biological Laboratories. […] All PRR agonists employed in the studies were chosen based on and verified endotoxin free as indicated by the manufacturers. For stimulation experiments, immature BMDCs generated from newborn and adult mice were plated in round bottom 96-wells non-tissue culture-treated plates at the density of 10^5 cells/well in 200 μl of fresh complete culture medium with rmGM-CSF as described above, with the appropriate stimuli at the concentrations indicated in Table 3. Cells were incubated at 37° C. for 20-24 hours, then supernatant harvested and TNF, IL-6, IL-1β and IL-12p70 concentrations were measured by ELISA (R&D Systems). IFNβ was measured with a bioluminescent ELISA kit (LumiKine, Invivogen). Alternatively, BMDCs were stained and analyzed by flow cytometry as indicated above.
Background: An ELISA detects its analyte on a solid surface through an enzyme-linked reagent.

The subject of the next series is newborn C57BL/6 mice. Format: in vivo. As to conditions: prime-boost DOL 7 and 14, Day 35 post-prime (DOL 42).
The next series relates to newborn mice. Format: in vivo. Conditions: single dose immunization, serum at DOL 35.
The test system of a further series is adult C57BL/6 mice. Format: in vivo. As to conditions: prime-boost i.m., rHA + adjuvant, Day 35 post-prime.
Series [1] can be described thus: Quantification of 2′3′-cGAMP adsorption onto alum by RP-HPLC. As to conditions: for % Adsorbed to Alum: 1:10 cGAMP:alum mass ratio, saline.
Protocol: After vortexing for 10 seconds the sample was placed in a 37° C. incubator. Every 15 minutes the sample was vortexed for an additional 5 seconds and placed back into the incubator. […] Supernatant was immediately removed and placed into an autosampler vial undiluted for analysis by reverse-phase high performance liquid chromatography (RP-HPLC) to determine adsorption as a function of time. RP-HPLC samples were run on a Waters 2695 HPLC equipped with a 2996 photodiode array detector at a wavelength of 254 nm. A gradient was performed using a two mobile phase system of 0.1% trifluoroacetic acid in water and 0.1% trifluoroacetic acid in acetonitrile, on an Agilent Zorbax Eclipse Plus C18, 4.6×150 mm, 5 micron column at 25° C.
The subject of another series is adult BMDCs. Nature of the series: BMDC in vitro stimulation with PRR agonists/adjuvants, 20-24 h: cytokines by ELISA. Format: cell-based, C57BL/6 mice. As to conditions: increasing concentrations. The protocol: BMDCs were generated from newborn (5-7 days old) and adult (6-12 weeks old) C57BL/6 mice with an adaptation of previously described methods (Dowling et al., 2008, Lutz et al., 1999). Briefly, mice were sacrificed and legs removed; bones were surgically cleaned from surrounding tissue, extremities of tibiae and femurs were trimmed with sterile scissors and bone marrow flushed through a 70 μm nylon mesh strainer (Corning Life Sciences). Cell number and viability was determined by trypan blue exclusion. […] For flow cytometry analysis, BMDCs were stained (20 minutes at 4° C.) in PBS+FBS 2%+EDTA 2 mM, fixed with formaldehyde 4% (10 minutes at RT) and acquired on a BD LSRFortessa flow cytometer (BD Biosciences) or a Sony spectral analyzer SP6800 (Sony Biotechnology) and data were analyzed using FlowJo v.10 software (Tree Star). […]
Rough (Salmonella Minnesota, R595) and smooth (Escherichia coli, O55:B5) lipopolysaccharide (LPS) were purchased from List Biological Laboratories. […] Cells were incubated at 37° C. for 20-24 hours, then supernatant harvested and TNF, IL-6, IL-1β and IL-12p70 concentrations were measured by ELISA (R&D Systems). IFNβ was measured with a bioluminescent ELISA kit (LumiKine, Invivogen). Alternatively, BMDCs were stained and analyzed by flow cytometry as indicated above. […]

Turning to `CCCCNc1nc(N)c2[nH]c(=O)n(Cc3ccc(C(=O)NCC(=O)O)cc3)c2n1` [CL264, reference compound], the “IL-12p70 production by neonatal BMDCs” value in the series on neonatal BMDCs (most effective non-toxic concentration, 20-24 h) was “failed to produce IL-12p′70”.

For the compound `Nc1nc2c(ncn2[C@@H]2O[C@@H]3COP(=O)(O)O[C@H]4[C@@H](O)[C@H](n5cnc6c(N)ncnc65)O[C@@H]4COP(=O)(O)O[C@@H]2[C@@H]3O)c(=O)[nH]1` [cGAMP, cyclic guanosine monophosphate (GMP)-adenosine monophosphate (AMP)], the “median anti-rHA IgG1 titers” value in the series on newborn C57BL/6 mice is given as 24.51×10^3; with newborn mice, “did not induce detectable”; with adult C57BL/6 mice, 0.77×10^6. Besides, the entries for the “median anti-rHA IgG2c titers” value in the series on newborn C57BL/6 mice, with newborn mice and in the series on adult C57BL/6 mice were 0.23×10^3, “did not induce detectable” and 0.82×10^6, respectively. Also, the “median anti-rHA IgG titers” value is recorded as 20.57×10^3 in the series on newborn C57BL/6 mice, “did not induce detectable” in the series with newborn mice and “increased anti-rHA IgG titers” in the series on adult C57BL/6 mice. The “upregulation of surface maturation markers (CD40, CD80, CD86), neonatal vs adult BMDCs” value with neonatal BMDCs (20-24 h stimulation) is recorded as “comparable”. Further, the “dependence of neonatal BMDC maturation marker expression on type I IFN signaling” value in the series on neonatal BMDCs (cGAMP 25 μg/ml, blocking anti-TNF and anti-IFNAR antibodies) is “type I interferon-dependent manner”. The “upregulation of surface maturation marker expression, cGAMP vs R848” value with neonatal BMDCs (neonatal and adult BMDCs, different concentrations) is on record as “more effective than R848”. Besides, the IFNβ production result in the series with neonatal BMDCs (newborn BMDCs, increasing concentrations) is “dose-dependent IFNβ production”; with adult BMDCs, “dose-dependent IFNβ production”. The “degradation products during incubation with alum” value in series [1] (37° C., over 24 hours) is reported as “No significant degradation products”. Moreover, the “Peak Area of cGAMP in supernatant (RP-HPLC, 254 nm)” value in series [1] (15 min, 37° C.) is on record as 22.53 mAU; in series [1] (30 min, 37° C.) it was 22.93 mAU; in series [1] (1 hour, 37° C.) it was 22.22 mAU; in series [1] (2 hours, 37° C.), 20.83 mAU; in series [1] (4 hours, 37° C.) it was 21.02 mAU; in series [1] (24 hours, 37° C.), 15.02 mAU. Further, the “% Adsorbed to Alum” value in series [1] (15 min, 37° C.) came out at 63%; in series [1] (30 min, 37° C.) it was 62.34%; in series [1] (1 hour, 37° C.), 63.51%; in series [1] (2 hours, 37° C.) it was 65.79%; in series [1] (4 hours, 37° C.), 65.48%; in series [1] (24 hours, 37° C.) it was 75.33%. The “cGAMP adsorbed onto alum in vitro” value in series [1] (summary statement in discussion, no time given) is recorded as “about 60%”.
